Patent publication US20110034496A1, “POST-HARVEST TREATMENT” (Bayer CropScience AG, priority 2007, published 2011)

Experiments:
[1] = tested on: Botrytis cinerea; experiment: Apples dipped in fungicidal solution, then inoculated with Botrytis cinerea spores at cuticle injuries; format: in vivo; conditions: dip 100 g a.i./1000 ltr
Procedure: (§1) In Example 1 and Example 2 all compounds except fluopyram were applied as commercially available. 1 weight proportion of fluopyram, however, was mixed with solvents (24.5 w/w acetone, 24.5 w/w dimethylacetamid) and emulsifier (1 w/w), respectively. Afterwards, the product was diluted in water. The concentration used is indicated below. Apples were dipped in a fungicidal solution and kept in plastic boxes for drying. Afterwards 10 μl of a spore solution of Botrytis cinerea has been applied to injuries of the cuticle of the fruits. The trial has been assessed at 6d and 10d after inoculation. The efficacy of the products has been calculated based on the fungal growth of the treated apples with reference to the inoculated untreated control. The efficacy is shown as % Abbott.

[2] = tested on: Penicillium expansum; experiment: Apples dipped in fungicidal solution, then inoculated with Penicillium expansum spores at cuticle injuries; format: in vivo; conditions: for % Efficacy [Abbott] at 6 d: 6 d after inoculation; for % Efficacy [Abbott] at 10 d: 10 d after inoculation; for % Efficacy [Abbott] at 15 d: 15 d after inoculation
Procedure: as §1, with “Penicillium expansum” for “Botrytis cinerea”, “different time intervals” for “6d and 10d”

[3] = dip 100 g a.i./1000 ltr., Table 1b
[4] = dip 100 g a.i./1000 ltr., Table 1a
[5] = dip 750 g a.i./1000 ltr., Table 1b
[6] = dip 50 g a.i./1000 ltr., Table 1b

Compound: O=C(NCCc1ncc(C(F)(F)F)cc1Cl)c1ccccc1C(F)(F)F [Fluopyram, N-{2-[3-chloro-5-(trifluoromethyl)pyridin-2-yl]ethyl}-2-(trifluoromethyl)-benzamide]
- % Efficacy [Abbott] at 6 d ([1]; 6 d after inoculation): 98%
- % Efficacy [Abbott] at 10 d ([1]; 10 d after inoculation): 96%
- % Efficacy [Abbott] at 6 d [2, 3]: 93%
- % Efficacy [Abbott] at 10 d [2, 3]: 90%
- % Efficacy [Abbott] at 15 d [2, 3]: 70%

Compound: CC(C)(C)C(O)(CCc1ccc(Cl)cc1)Cn1cncn1 (centres unmarked) [Tebuconazole, tebuconazole]
- % Efficacy [Abbott] at 6 d [2, 4]: 100%
- % Efficacy [Abbott] at 10 d [2, 4]: 100%
- % Efficacy [Abbott] at 14 d ([2]; dip 100 g a.i./1000 ltr., 14 d after inoculation, Table 1a): 100%

Compound: Cc1ccc(N(SC(F)(Cl)Cl)S(=O)(=O)N(C)C)cc1 [Tolylfluanid, tolylfluanid]
- % Efficacy [Abbott] at 6 d [2, 5]: 64%
- % Efficacy [Abbott] at 10 d [2, 5]: 60%
- % Efficacy [Abbott] at 15 d [2, 5]: 60%

Compound: CON=C(C(=O)OC)c1ccccc1CON=C(C)c1cccc(C(F)(F)F)c1 [Trifloxystrobin, trifloxystrobin]
- % Efficacy [Abbott] at 6 d [2, 6]: 50%
- % Efficacy [Abbott] at 10 d [2, 6]: 63%
- % Efficacy [Abbott] at 15 d [2, 6]: 52%
